Measured values: US20100021434A1, “Isolated Oligodendrocyte-Like Cells and Populations Comprising Same for the Treatment of CNS Diseases” (Ramot At Tel Aviv University Ltd., priority 2005, published 2010)

Legend:
Format in all cases: cell-based
mouse MSCs [1] = test: Oligodendrocyte-like differentiation of mouse MSCs, immunostaining (A2B5, O4, MBP); settings: for Fraction of A2B5+ cells: mouse MSCs, cytokines added to growth medium; for expression of the oligodendrocyte progenitor marker A2B5 (FIGS. 4A-C): MSCs of C57-EGFP mice, NT-3 50 ng/ml, IL-1β 20 ng/ml
Protocol: (§1) Oligodendrocyte-like Differentiation of mouse MSCs: 3.2*10^3 mMSCs per well from transgenic EGFP+ C57/b1 mice (that have constitutive expression of EGFP in all their cells), were cultured in growth medium (15% FCS, 5% HS, 2 mM L-glutamine, 0.001% β-mercaptoethanol, 10 ng/ml epidermal growth factor, 100 U/ml Penicillin, 100 μg/ml Streptomycin and 12.5 U/ml Nystatin in α-DMEM), and then transferred to mediums containing different cytokines, hormones and growth factors (See table 2 hereinbelow) that play roles in oligodendrocyte lineage differentiation process, to examine the effects of those substances on the cells. The cells were incubated in the differentiation mediums for 48 hours or 6 days, and then were fixed in 4% PFA for 5 minutes in RT and 20 minutes in 4° C. and photographed for morphological changes.
The fixed cells were then blocked in 5% goat serum (GS) stained with mouse anti-A2B5 antibodies (1:200; Chemicon) overnight, 4° C., washed twice in 5% GS, and appropriate goat anti mouse second Cy3 antibody (1:500; Jackson labs) for one hour, RT, in the dark. The cells were then examined for fluorescence and photographed by fluorescence Olympus IX70-S8F2 microscope with fluorescent light source and a U-MNU filter cube (Olympus). In all immuno-staining experiments, a sample was also stained with IInd antibodies only, as control, to detect any non-specific staining.

mouse MSCs [2] = test: Oligodendrocyte-like differentiation of mouse MSCs, morphology; settings: MSCs of C57-EGFP transgenic mice, growth medium plus cytokines, 6 days
Protocol: as §1

mouse MSCs [3] = test: FACS analysis of differentiated mouse cells (A2B5, O4); settings: EGFP mMSCs, IL-1β 20 ng/ml in growth medium, 4 days
Protocol: FIGS. 5A-D are graphs and tables illustrating an analysis of mouse MSCs following differentiation protocol in vitro. MSCs from the bone marrow of transgenic EGFP-expressing transgenic mice (A) were cultured in differentiation medium composed of standard growth medium supplemented by IL-1β (20 ng/ml), or in standard growth medium only (control; B) for 4 days. The cells were then stained by antibodies against oligodendrocyte progenitor marker A2B5, and analyzed by flow cytometry (A2B5 staining seen as black lines). Nonspecific staining by second antibody only was used as control (nonspecific staining seen as red lines), and quantitative measurements were made from the cross points of the two lines. Quantitative measurements (D) were made either on the total population (first row), or on the population with very small-sized events omitted (see gated area in A; second row in D).
FACS analysis of differentiated mouse cells: MSCs were harvested from the tissue culture flasks following […] in differentiation medium (See Table 3, in the Results, #4), alongside undifferentiated MSCs, and centrifuged at 1000×rpm for 10 minutes at room temperature. […] After two washes in flow buffer, the cells were resuspended in 0.5 ml PBS and were studied by a fluorescence activated cell sorter (FACS) Calibur™ using an argon ion laser, adjusted to an excitation wavelength of 488 nm (Becton Dickinson). […]

Molecule: CC1=C(/C=C/C(C)=C/C=C/C(C)=C/C(=O)O)C(C)(C)CCC1 [Retinoic acid, reference compound]
- Fraction of A2B5+ cells (mouse MSCs [1]; 48 hours): 0%

Molecule: Interleukin-1β: interleukin 1 beta, cytokine from PeproTech added to growth medium
- expression of the oligodendrocyte progenitor marker A2B5 (FIGS. 4A-C) (mouse MSCs [1]; 6 days): acquiring expression
- Fraction of A2B5+ cells (mouse MSCs [1]; 48 hours): 1%
- Fraction of A2B5+ cells (mouse MSCs [1]; 6 days): 3.8%
- cell morphology (FIGS. 3A-F) (mouse MSCs [2]): did not alter drastically
- percentage A2B5+ cells (FACS analysis) (mouse MSCs [3]): changes. Low

B1: Neurotrophin-3: neurotrophin 3, human polypeptide or mammalian homologue, from PeproTech (protein, UniProt P20783 139-257, looked up)
Neurotrophin-3: YAEHKSHRGEYSVCDSESLWVTDKSSAIDIRGHQVTVLGEIKTGNSPVKQYFYETRCKEARPVKNGCRGIDDKHWNSQCKTSQTYVRALTSENNKLVGWRWIRIDTSCVCALSRKIGRT
modifications: Neurotrophin-3
notes: neurotrophin 3, human polypeptide or mammalian homologue, from PeproTech
- expression of the oligodendrocyte progenitor marker A2B5 (FIGS. 4A-C) (mouse MSCs [1]; 6 days): acquiring expression
- Fraction of A2B5+ cells (mouse MSCs [1]; 48 hours): 1.9%
- Fraction of A2B5+ cells (mouse MSCs [1]; 6 days): 2.7%
- cell morphology (FIGS. 3A-F) (mouse MSCs [2]): did not alter drastically
